Results as given in patent publication US9771351B2, “Wnt signaling inhibitor” (KYOWA HAKKO KIRIN CO., LTD., priority 2013, dated 2017).
Read-outs that look alike come from different tables or passages of the source.

Assays:
[1] = test system: T-cell factor (TCF)-luciferase reporter using Wnt pathway as index; assay: Inhibitory activity against TCF-luciferase reporter using Wnt pathway as index (DLD-1/TCF-Luc cells); type: cell-based, human; details: Homo sapiens, read-out: Inhibition ratio (%) at 1 μmol/L
Method: Test Example 1: Inhibitory Activity Against T-Cell Factor (TCF)-Luciferase Reporter Using Wnt Pathway as Index
The inhibitory activity of test compounds against Wnt pathway was evaluated by the following method.
A human colorectal adenocarcinoma cell line DLD-1 (Japanese Collection of Research Bioresources) was cultured in RPMI-1640 medium (Gibco/Life Technologies, Inc.) containing 10% fetal bovine serum (Gibco/Life Technologies, Inc.), 10 mmol/L of a 4-(2-hydroxyethyl)-1-piperazineethanesulfonic acid (HEPES) buffer solution (Gibco/Life Technologies, Inc.), 1 mmol/L of a sodium pyruvate solution (Gibco/Life Technologies, Inc.), 4.5 g/L of a D-(+)-glucose solution (Sigma-Aldrich, Inc.), 100 units/mL penicillin (Gibco/Life Technologies, Inc.) and 100 μg/mL of streptomycin (Gibco/Life Technologies, Inc.) under the conditions of 37° C. and 5% carbon dioxide gas. The DLD-1 cells were seeded in a 10 cm dish, and 20 μg of a luciferase gene plasmid pGL4.27 having a TCF responsive sequence inserted therein was transfected into the cells using 10 μL of Attractene (Qiagen, Inc.) according to the protocol attached to the product. A stably expressing cell line (DLD-1/TCF-Luc) was selected using […] of hygromycin B (Wako Pure Chemical Industries Ltd.). The DLD-1/TCF-Luc cells were detached with trypsin and seeded in a 384-well plate, and a test compound was added at different concentrations. After 18 hours, the luciferase activity was measured using Steady-Glo™ Luciferase Assay System (Promega, Inc.).
The inhibition ratio was obtained according to the following formula 1. The inhibition ratio (%) of the compound of the present invention at 1 μmol/L against the TCF-luciferase reporter using the Wnt pathway as an index is shown in Table 6. [Math. 1] Inhibition ratio (%)=100−{(luciferase activity when test compound was added)−(luciferase activity of blank)}/{(luciferase activity of control)−(luciferase activity of blank)}×100 Formula 1

tankyrase-2 = target: T1, tankyrase-2 (Homo sapiens, UniProt Q9H2K2); assay: Tankyrase-2 enzyme inhibition test (Tankyrase-2 Chemiluminescent Assay Kit); type: biochemical; details: autoribosylation of GST-tankyrase-2 fusion protein, chemiluminescence
T1 construct: purchased BPS Bioscience, Inc. 80566
T1 sequence (Q9H2K2 1-1166): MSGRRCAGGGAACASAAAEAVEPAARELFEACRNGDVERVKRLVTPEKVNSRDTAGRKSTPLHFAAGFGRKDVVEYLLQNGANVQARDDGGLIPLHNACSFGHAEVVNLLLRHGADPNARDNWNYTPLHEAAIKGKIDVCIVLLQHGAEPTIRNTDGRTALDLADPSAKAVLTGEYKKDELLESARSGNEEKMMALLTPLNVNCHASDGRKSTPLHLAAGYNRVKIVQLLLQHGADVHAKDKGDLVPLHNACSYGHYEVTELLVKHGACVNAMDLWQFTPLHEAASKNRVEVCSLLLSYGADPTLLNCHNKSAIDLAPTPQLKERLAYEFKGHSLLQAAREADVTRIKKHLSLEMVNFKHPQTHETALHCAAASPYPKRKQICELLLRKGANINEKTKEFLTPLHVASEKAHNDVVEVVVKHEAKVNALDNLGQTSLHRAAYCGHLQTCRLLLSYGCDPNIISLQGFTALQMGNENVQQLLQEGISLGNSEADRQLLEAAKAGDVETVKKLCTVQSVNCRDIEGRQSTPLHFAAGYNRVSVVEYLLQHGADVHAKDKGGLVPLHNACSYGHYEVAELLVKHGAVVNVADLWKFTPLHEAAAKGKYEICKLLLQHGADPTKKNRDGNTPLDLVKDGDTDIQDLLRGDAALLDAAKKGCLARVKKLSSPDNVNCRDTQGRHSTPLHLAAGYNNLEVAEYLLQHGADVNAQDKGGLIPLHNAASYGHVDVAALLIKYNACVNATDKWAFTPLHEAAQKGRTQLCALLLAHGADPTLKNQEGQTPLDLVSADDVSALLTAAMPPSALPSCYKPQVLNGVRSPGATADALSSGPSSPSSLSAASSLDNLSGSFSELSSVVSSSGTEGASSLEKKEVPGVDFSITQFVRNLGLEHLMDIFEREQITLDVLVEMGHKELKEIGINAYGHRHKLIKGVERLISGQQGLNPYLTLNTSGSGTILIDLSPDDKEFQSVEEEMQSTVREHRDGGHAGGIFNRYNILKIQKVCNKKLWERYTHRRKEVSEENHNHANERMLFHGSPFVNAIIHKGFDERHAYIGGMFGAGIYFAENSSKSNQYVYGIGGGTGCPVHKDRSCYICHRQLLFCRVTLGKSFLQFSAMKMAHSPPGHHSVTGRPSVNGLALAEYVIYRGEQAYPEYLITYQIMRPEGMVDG
Method: Test Example 2: Tankyrase-2 Enzyme Inhibition Test
The enzyme activity of tankyrase-2 was evaluated using Tankyrase-2 Chemiluminescent Assay Kit (BPS Bioscience, Inc., Catalog No. 80566). The Tankyrase-2 Chemiluminescent Assay Kit is a kit for evaluating the enzyme activity of tankyrase-2 using autoribosylation of glutathione-S-transferase (GST)-tankyrase-2 fusion protein as an index. All the experimental materials except for PBS (PBST) buffer containing phosphate-buffered saline (PBS) and 0.05% Tween 20 are all included in the kit. The GST-tankyrase-2 enzyme diluted with 50 μL of 1× tankyrase buffer was added to the wells of a 96-well plate coated with glutathione. After the plate was left to stand overnight at 4° C., the plate was washed 3 times with the PBST buffer. 150 μL of blocking buffer was added thereto, and the plate was left to stand at room temperature for 30 minutes to block the wells. The plate was washed 3 times with the PBST buffer. Before the ribosylation reaction, an assay mixture containing a biotinylated substrate and a test compound diluted with 1× tankyrase buffer were mixed, whereby a reaction mixture was prepared. In order to start the ribosylation reaction, 50 μL of the reaction mixture was added to the wells. In a blank well, 1× tankyrase buffer was added in place of the reaction mixture containing a biotinylated substrate. The plate was left to stand at 30° C. for 1 hour. After the reaction, the plate was washed 3 times with the PBST buffer. Streptavidin-horseradish peroxidase (HRP) was diluted to 50-fold with the blocking buffer. The diluted streptavidin-HRP was added to the wells, and the plate was left to stand at room temperature for 30 minutes. The plate was washed 3 times with the PBST buffer. Immediately before use, 50 μL of the HRP chemiluminescent substrate A and 50 μL of the HRP chemiluminescent substrate B were mixed and 100 μL of the resulting mixture was added to the wells. The chemiluminescence was measured using a chemiluminescence measuring apparatus. The inhibition ratio was obtained according to the following formula 2. [Math. 2] Inhibition ratio (%)=100−{(chemiluminescence intensity when test compound was added)−(chemiluminescence intensity of blank)}/{(chemiluminescence intensity of control)−(chemiluminescence intensity of blank)}×100 Formula 2

[2] = 1 μmol/L, DLD-1/TCF-Luc cells, luciferase activity after 18 hours

Row | SMILES | Inhibition ratio (%) at 1 μmol/L (tankyrase-2) [%] | inhibition at 1 µM ([1]; DLD-1, 18 h) [%] | inhibition at 1 µM [1, 2] [%]
1 | COc1cncnc1N1CCC(CN2Cc3ccccc3N(c3ccnc(C#N)c3)C2=O)CC1 [Compound 32, 4-(3-{[1-(5-Methoxypyrimidin-4-yl)piperidin-4-yl]methyl}-2-oxo-3,4-dihydroquinazolin-1(2H)-yl)picolinonitrile] | 94 | 76 | 
2 | N#Cc1cc(N2C(=O)N(CC3CCN(c4nccc5nc[nH]c(=O)c45)CC3)Cc3ccccc32)ccn1 [Compound 34, 4-(2-Oxo-3-{[1-(4-oxo-3,4-dihydropyrido[4,3-d]pyrimidin-5-yl)piperidin-4-yl]methyl}-3,4-dihydroquinazolin-1(2H)-yl)picolinonitrile] | 87 | 78 | 
3 | COc1cc2ncnc(N3CCC(CN4Cc5ccccc5N(c5ccnc(C#N)c5)C4=O)CC3)c2cc1OC [Compound 9, 4-(3-{[1-(6,7-Dimethoxyquinazolin-4-yl)piperidin-4-yl]methyl}-2-oxo-3,4-dihydroquinazolin-1(2H)-yl)picolinonitrile] | 91 | 74 | 
4 | N#Cc1cc(N2C(=O)N(CC3CCN(c4ncnc5cc(N6CCOCC6)ccc45)CC3)Cc3ccccc32)ccn1 [Compound 37, 4-(3-{[1-(7-Morpholinoquinazolin-4-yl)piperidin-4-yl]methyl}-2-oxo-3,4-dihydroquinazolin-1(2H)-yl)picolinonitrile] | 87 | 82 | 
5 | COc1cc2ncnc(N3CCC(CN4Cc5ccccc5N(Cc5ccccc5C(N)=O)C4=O)CC3)c2cc1OC [Compound 1, 2-[(3-{[1-(6,7-Dimethoxyquinazolin-4-yl)piperidin-4-yl]methyl}-2-oxo-3,4-dihydroquinazolin-1(2H)-yl)methyl]benzamide] | 91 |  | 88
6 | COc1ccc2c(c1)CN(CC1CCN(c3nccc4nc[nH]c(=O)c34)CC1)C(=O)N2c1ccnc(C(N)=O)c1 [Compound 48, 4-(6-Methoxy-2-oxo-3-{[1-(4-oxo-3,4-dihydropyrido[4,3-d]pyrimidin-5-yl)piperidin-4-yl]methyl}-3,4-dihydroquinazolin-1(2H)-yl)picolinamide] | 93 |  | 84
7 | COc1cc2ncnc(N3CCC(CN4Cc5ccccc5N(C5CCOCC5)C4=O)CC3)c2cc1OC [Compound 16, 3-{[1-(6,7-Dimethoxyquinazolin-4-yl)piperidin-4-yl]methyl}-1-(tetrahydro-2H-pyran-4-yl)-3,4-dihydroquinazolin-2(1H)-one] | 71 |  | 63
8 | N#Cc1cc(N2C(=O)N(CC3CCN(c4nccn5ccnc45)CC3)Cc3ccccc32)ccn1 [Compound 30, 4-(3-{[1-(Imidazo[1,2-a]pyrazin-8-yl)piperidin-4-yl]methyl}-2-oxo-3,4-dihydroquinazolin-1(2H)-yl)picolinonitrile] | 92 | 69 | 
9 | N#Cc1cc(N2C(=O)N(CC3CCN(c4c(C(N)=O)ccnc4F)CC3)Cc3ccccc32)ccn1 [Compound 40, 3-(4-{[1-(2-Cyanopyridin-4-yl)-2-oxo-1,2-dihydroquinazolin-3(4H)-yl]methyl}piperidin-1-yl)-2-fluoroisonicotinamide] | 93 | 78 | 

Second part, led by results:

Row | Inhibition ratio (%) at 1 μmol/L (tankyrase-2) [%] | SMILES | inhibition at 1 µM ([1]; DLD-1, 18 h) [%] | inhibition at 1 µM [1, 2] [%]
10 | 91 | COc1cc2ncnc(N3CCC(CN4Cc5ccccc5N(CC5CCCO5)C4=O)CC3)c2cc1OC (stereo not shown) [Compound 2, 3-{[1-(6,7-Dimethoxyquinazolin-4-yl)piperidin-4-yl]methyl}-1-[(tetrahydrofuran-2-yl)methyl]-3,4-dihydroquinazolin-2(1H)-one] |  | 87
11 | 98 | COc1cc2ncnc(N3CCC(CN4Cc5cccnc5N(c5ccnc(C#N)c5)C4=O)CC3)c2cc1OC [Compound 22, 4-(3-{[1-(6,7-Dimethoxyquinazolin-4-yl)piperidin-4-yl]methyl}-2-oxo-3,4-dihydropyrido[2,3-d]pyrimidin-1(2H)-yl)picolinonitrile] |  | 75
12 | 82 | CC(=O)Nc1ccc2ncnc(N3CCC(CN4Cc5cccnc5N(c5ccnc(C#N)c5)C4=O)CC3)c2c1 [Compound 50, N-[4-(4-{[1-(2-Cyanopyridin-4-yl)-2-oxo-1,2-dihydropyrido[2,3-d]pyrimidin-3(4H)-yl]methyl}piperidin-1-yl)quinazolin-6-yl]acetamide] |  | 87
13 | 94 | COc1cc2ncnc(N3CCC(CN4Cc5cc(S(C)(=O)=O)ccc5N(Cc5ccccc5C#N)C4=O)CC3)c2cc1OC [Compound 5, 2-[(3-{[1-(6,7-Dimethoxyquinazolin-4-yl)piperidin-4-yl]methyl}-6-(methylsulfonyl)-2-oxo-3,4-dihydroquinazolin-1(2H)-yl)methyl]benzonitrile] |  | 84
14 | 93 | COc1cc2ncnc(N3CCC(CN4Cc5ccncc5N(c5ccnc(C#N)c5)C4=O)CC3)c2cc1OC [Compound 21, 4-(3-{[1-(6,7-Dimethoxyquinazolin-4-yl)piperidin-4-yl]methyl}-2-oxo-3,4-dihydropyrido[3,4-d]pyrimidin-1(2H)-yl)picolinonitrile] |  | 76
